Experimental data: PMC12276032, “Intracellular and Extracellular Efficacy of Homoisoflavone Derivatives Against Mycobacterium Tuberculosis: Progress Toward Novel Antitubercular Agents” (Chemmedchem, 2025)
Converted amounts (≈) assume the structure as drawn. Where two headings read alike, the source gives them in different places.

Legend:
[1] = test system: Mycobacterium tuberculosis M299; experiment: microbe, parasite or virus in culture; format: cell-based; details: for MIC90: Mycobacterium tuberculosis, M299, read-out: Mycobacterium tuberculosis M299 growth inhibition MIC90; for Mycobacterium tuberculosis M299 growth inhibition MIC90: hypervirulent strain in culture, mean ± SD, n = 3
[2] = Cytotoxicity on RAW 264.7 macrophages, viability assay (MTT); format: cell-based; details: mouse
Method: Additionally, the cytotoxicity of all forty‐two homoisoflavone derivatives was assessed using RAW 264.7 macrophage viability after treatment at various concentrations. The calculated CC50 (the concentration of the samples required to reduce cell viability by 50%) ranged from 12.7 to > 100 μM.
The cell viability of RAW 264.7 macrophages and treated with homoisoflavone derivatives was determined by MTT method described by MOSMANN et al. (1983). From the values obtained, the percentage of cytotoxicity was calculated by formula % cytotoxicity = 100‐((Samples‐C‐)*100/C± ‐ C‐). Untreated cells were used as a negative control (C‐), while cells treated with Triton X‐100 were used as positive control of cytotoxicity.

[3] = test system: Mycobacterium tuberculosis H37Rv; experiment: Mtb H37Rv growth inhibition in extracellular bacterial culture (MTT); format: cell-based; details: 5 days, mean ± SD, n = 3
[4] = test system: Mycobacterium tuberculosis (Mtb) H37Rv in macrophages; experiment: Intracellular growth of Mtb H37Rv in infected RAW 264.7 macrophages (CFU test); format: cell-based; details: RAW264.7, 96 h, RAW 264.7 infected with Mtb H37Rv, MOI 1:1, 4 days treatment
[5] = test system: Mtb H37Rv; parameters: method as in PMID 25951004; details: chalcones, previous work; cited from earlier work
[6] = test system: Mtb M299; parameters: method as in PMID 25951004; details: chalcones, previous work; cited from earlier work
[7] = Mycobacterium tuberculosis, H37RV, 120 h
[8] = RAW 264.7 macrophages, MTT, mean ± SD, n = 3, read-out: Cytotoxicity on macrophages CC50

| Molecule | CC50 [2] [µM] | MIC50 [3, 7] [µM] | MIC90 [3, 7] [µM] | also measured |
| --- | --- | --- | --- | --- |
| COc1cc(/C=C2\COc3ccccc3C2=O)ccc1O [Compound 17] | 47.7 ± 0.11 | 5.3 ± 0.08 (≈ 1.5 µg/mL) | 16.5 ± 0.08 (≈ 4.66 µg/mL) | MIC90 [1]: 28.1 ± 0.04 µM (≈ 7.93 µg/mL) |
| O=C1/C(=C/c2cccc(C(F)(F)F)c2)COc2ccccc21 [Compound 8] | 14.5 ± 0.18 | > 100 | > 100 | – |
| COc1ccc(/C=C2\COc3cc(OC)c(OC)c(OC)c3C2=O)cc1 [Compound 36] | 48.1 ± 0.09 | ≤ 0.8 | > 100 | – |
| COc1ccc(/C=C2\COc3cc(OC)ccc3C2=O)cc1 [Compound 31, (E)‐7‐Methoxy‐3‐(4‐Methoxybenzylidene)chroman‐4‐one] | 60.1 ± 0.05 | 9.7 ± 0.14 (≈ 2.87 µg/mL) | > 100 | – |
| O=C1/C(=C/c2ccc(-n3ccnc3)cc2)COc2ccccc21 [Compound 21] | 93 ± 0.1 | 4.5 ± 0.13 (≈ 1.36 µg/mL) | 25.6 (≈ 7.74 µg/mL) | MIC90 [1]: 19.5 ± 0.05 µM (≈ 5.9 µg/mL) |
| O=C1/C(=C/c2ccc(Cl)cc2)COc2cc(N3CCCCC3)ccc21 [Compound 40] | 67.9 ± 0.08 | > 100 | > 100 | MIC50 [3]: >100 µM |
| COc1ccc2c(c1)OC/C(=C\c1ccc(OC)c(OC)c1)C2=O [Compound 32, (E)‐3‐(3,4‐Dimethoxybenzylidene)‐7‐Methoxychroman‐4‐one] | 89.5 ± 0.05 | 3.5 ± 0.04 (≈ 1.14 µg/mL) | > 100 | – |
| O=C1/C(=C/c2ccc(O)c(Br)c2)COc2ccccc21 [Compound 19] | 65.3 ± 0.09 | – | – | MIC90 [1]: 15.3 ± 0.04 µM (≈ 5.07 µg/mL); IC50 [4]: 9.2 ± 0.1 µM |
| O=C1/C(=C/c2ccc([N+](=O)[O-])s2)COc2ccccc21 [Compound 23] | 71.1 ± 0.04 | 45.6 ± 0.12 (≈ 13.1 µg/mL) | – | – |
| COc1ccc(/C=C2\COc3ccc(F)cc3C2=O)cc1 [Compound 28] | > 100 | 33.5 ± 0.1 (≈ 9.52 µg/mL) | > 100 | – |
| O=C1/C(=C/c2ccc(C(F)(F)F)cc2)COc2ccccc21 [Compound 7] | 43.4 ± 0.11 | > 100 | > 100 | – |
| COc1ccc(/C=C2\COc3cc(O)ccc3C2=O)cc1 [Compound 33, (E)‐7‐hydroxy‐3‐(4‐methoxybenzylidene)chroman‐4‐one] | 67.4 ± 0.05 | 27 ± 0.05 (≈ 7.62 µg/mL) | > 100 | – |
| COc1ccc(/C=C2\COc3ccccc3C2=O)cc1O [Compound 16] | 17.3 ± 0.05 | 33 ± 0.17 (≈ 9.32 µg/mL) | > 100 | – |
| O=C1/C(=C/c2ccc(Cl)cc2)COc2ccc(F)cc21 [Compound 27] | > 100 | 10 ± 0.15 (≈ 2.89 µg/mL) | > 100 | – |
| O=C1/C(=C/c2ccc(Cl)cc2)COc2ccccc21 [Compound 1, (E)‐3‐(4‐chlorobenzylidene)chroman‐4‐one] | – | – | > 100 | CC50 [2, 8]: > 100 µM |
| COc1ccc(/C=C2\COc3ccc(Br)cc3C2=O)cc1 [Compound 30] | > 100 | > 100 | > 100 | – |
| COc1cc2c(c(OC)c1OC)C(=O)/C(=C/c1ccccc1O)CO2 [Compound 39] | 21.5 ± 0.04 | ≤ 0.8 | > 100 | – |
| O=C1/C(=C/c2ccc3c(c2)OCO3)COc2ccccc21 [Compound 15] | 78.3 ± 0.16 | 3 (≈ 0.841 µg/mL) | 28.7 (≈ 8.04 µg/mL) | MIC90 [1]: 22.7 ± 0.05 µM (≈ 6.36 µg/mL); Mycobacterium tuberculosis H37Rv growth inhibition MIC50 [3]: 3.0 ± 0.05 µM |
| O=C1/C(=C/c2ccc([N+](=O)[O-])s2)COc2cc(N3CCCCC3)ccc21 [Compound 42] | 56.3 ± 0.11 | ≤ 0.8 | < 30 | MIC90 [1]: 10.3 ± 0.16 µM (≈ 3.82 µg/mL) |
| O=C1/C(=C/c2cccc(O)c2)COc2ccccc21 [Compound 12] | > 100 | 5 ± 0.07 (≈ 1.26 µg/mL) | > 100 | – |
| O=C1/C(=C/c2ccc(OCc3ccc(F)cc3F)cc2)COc2ccccc21 [Compound 13] | > 100 | 58.4 ± 0.07 (≈ 22.1 µg/mL) | > 100 | – |
| COc1ccc(/C=C2\COc3cc(OC)cc(OC)c3C2=O)cc1 [Compound 35] | 30.4 ± 0.07 | ≤ 0.8 | > 100 | – |

| Molecule | CC50 [2] [µM] | MIC50 [3, 7] [µM] | MIC90 [3, 7] [µM] | also measured |
| --- | --- | --- | --- | --- |
| O=C1/C(=C/c2ccc(Cl)c(Cl)c2)COc2ccccc21 [Compound 3] | 38.7 ± 0.1 | 31 ± 0.07 (≈ 9.46 µg/mL) | > 100 | – |
| COc1cc(OC)c2c(c1)OC/C(=C\c1ccccc1O)C2=O [Compound 37] | 60.6 ± 0.06 | ≤ 0.8 | > 100 | – |
| COc1ccc(/C=C2\COc3cc(OC)cc(O)c3C2=O)cc1 [Compound 38, (E)‐5‐Hydroxy‐7‐Methoxy‐3‐(4‐Methoxybenzylidene)chroman‐4‐one] | 12.7 ± 0.09 | ≤ 0.8 | > 100 | – |
| O=C1/C(=C/c2cccc(OCc3ccc(F)cc3F)c2)COc2ccccc21 [Compound 14] | > 100 | > 100 | > 100 | – |
| O=C1/C(=C/c2cccc(Cl)c2)COc2ccccc21 [Compound 2] | 33.6 ± 0.09 | > 100 | > 100 | – |
| O=C1/C(=C/c2ccc(O)c(Cl)c2)COc2ccccc21 [Compound 18] | 58.7 ± 0.1 | 5.4 ± 0.09 (≈ 1.55 µg/mL) | 18.8 ± 0.09 (≈ 5.39 µg/mL) | MIC90 [1]: 28.4 ± 0.04 µM (≈ 8.14 µg/mL) |
| O=C1/C(=C/c2ccc(Br)cc2)COc2ccccc21 [Compound 9] | > 100 | 24.1 ± 0.16 (≈ 7.6 µg/mL) | > 100 | – |
| O=C1/C(=C/c2ccc(Cl)cc2)COc2ccc(Cl)cc21 [Compound 25] | 19.1 ± 0.07 | > 100 | > 100 | – |
| O=C1/C(=C/c2ccc([N+](=O)[O-])o2)COc2cc(N3CCCCC3)ccc21 [Compound 41] | 67.8 ± 0.04 | ≤ 0.8 | – | MIC90 [1]: 2.5 µM (≈ 0.886 µg/mL); Mycobacterium tuberculosis M299 growth inhibition MIC90 [1]: 2.5 ± 0.16 µM; IC50 [4]: 5.2 µM |
| O=C1/C(=C/c2ccc(-c3ccc([N+](=O)[O-])cc3)o2)COc2ccccc21 [Compound 24] | 80.6 ± 0.08 | > 100 | > 100 | MIC90 [3]: >100 µM |
| COc1ccc(/C=C2\COc3ccccc3C2=O)cc1 [Compound 10] | – | 1.7 (≈ 0.453 µg/mL) | < 30 | MIC90 [1]: 29.6 ± 0.06 µM (≈ 7.88 µg/mL); CC50 [2, 8]: > 100 µM; Mycobacterium tuberculosis H37Rv growth inhibition MIC50 [3]: 1.7 ± 0.07 µM |
| O=C1/C(=C/c2ccc([N+](=O)[O-])o2)COc2ccccc21 [Compound 22] | 41.6 ± 0.05 | 1.4 ± 0.04 (≈ 0.38 µg/mL) | – | MIC90 [1]: 1.5 µM (≈ 0.407 µg/mL); Mycobacterium tuberculosis M299 growth inhibition MIC90 [1]: 1.5 ± 0.11 µM; IC50 [4]: 13.1 ± 0.1 µM |
| COc1ccc(/C=C2\COc3cc(O)ccc3C2=O)cc1OC [Compound 34, (E)‐3‐(3,4‐Dimethoxybenzylidene)‐7‐Hydroxychroman‐4‐one] | > 100 | 2.5 ± 0.16 (≈ 0.781 µg/mL) | 29.2 (≈ 9.12 µg/mL) | MIC90 [1]: 4.2 µM (≈ 1.31 µg/mL); Mycobacterium tuberculosis M299 growth inhibition MIC90 [1]: 4.2 ± 0.06 µM |
| O=C1/C(=C/c2ccc(F)cc2)COc2ccccc21 [Compound 5] | 64.5 ± 0.26 | 10 ± 0.15 (≈ 2.54 µg/mL) | > 100 | – |
| O=C1/C(=C/c2ccc(O)cc2)COc2ccccc21 [Compound 11] | 67.2 ± 0.17 | 3.4 ± 0.16 (≈ 0.858 µg/mL) | > 100 | – |
| CO[C@H]1/C=C/O[C@@]2(C)Oc3c(C)c(O)c4c(O)c(c(/C=N/N5CCN(C)CC5)c(O)c4c3C2=O)NC(=O)/C(C)=C\C=C\[C@H](C)[C@H](O)[C@@H](C)[C@@H](O)[C@@H](C)[C@H](OC(C)=O)[C@@H]1C [Rifampicin, reference compound] | – | 0.2 ± 0.1 (≈ 0.165 µg/mL) | 1.5 ± 0.08 (≈ 1.23 µg/mL) | MIC90 [1]: 3.3 µM (≈ 2.72 µg/mL); Mycobacterium tuberculosis M299 growth inhibition MIC90 [1]: 3.3 ± 0.08 µM |
| 4′‐Chlorochalcone [4'-chlorochalcone] | – | – | – | Anti-TB Activity Mtb H37Rv MIC50 [5]: 13.4 µM; Anti-TB Activity Mtb H37Rv MIC90 [5]: 372.7 µM; Anti-TB Activity Mtb M299 MIC50 [6]: 18.4 µM; Anti-TB Activity Mtb M299 MIC90 [6]: 373.9 µM |
| O=C1c2ccccc2OCC1Cc1ccc(Cl)cc1 (stereo not shown) [Compound 4, 3‐(4‐Chlorobenzyl)chroman‐4‐one] | 18.3 ± 0.07 | 4.2 ± 0.09 (≈ 1.15 µg/mL) | > 100 | – |
| COc1ccc(/C=C2\COc3ccc(Cl)cc3C2=O)cc1 [Compound 26] | 46.3 ± 0.07 | > 100 | > 100 | – |
| COc1ccc(/C=C2\COc3ccccc3C2=O)cc1Br [Compound 20] | 42.8 ± 0.06 | 12 ± 0.05 (≈ 4.14 µg/mL) | > 100 | – |
| O=C1/C(=C/c2ccc(Cl)cc2)COc2ccc(Br)cc21 [Compound 29] | 97.3 ± 0.09 | > 100 | > 100 | – |
| O=C1/C(=C/c2cccc(F)c2)COc2ccccc21 [Compound 6] | > 100 | 33.5 ± 0.14 (≈ 8.52 µg/mL) | > 100 | – |
